Reference: PMC4824473, “Dose-Response Analysis of Chemotactic Signaling Response in Salmonella typhimurium LT2 upon Exposure to Cysteine / Cystine Redox Pair” (PLoS ONE, 2016)

Target: T1, Tar (Salmonella enterica, UniProt P02941)
T1 construct: native chromosomal full-length receptor, homodimer in mixed receptor arrays; strain TSS868 (LT2 delta-tsr delta-cheY delta-cheZ) with CheZ-CFP/CheY-YFP plasmid pVS88; other native receptors present
Assay: in vivo CheZ-CFP/CheY-YFP FRET of receptor-kinase activity, Hill fit
Assay type: cell-based
Settings: live delta-tsr cells, motility buffer pH 7.0, room temperature; attractant; Hill coefficient 1.5; other receptors present; about 1% of Cys possibly oxidized to cystine; read-out: half maximum

T1 sequence (P02941 whole entry): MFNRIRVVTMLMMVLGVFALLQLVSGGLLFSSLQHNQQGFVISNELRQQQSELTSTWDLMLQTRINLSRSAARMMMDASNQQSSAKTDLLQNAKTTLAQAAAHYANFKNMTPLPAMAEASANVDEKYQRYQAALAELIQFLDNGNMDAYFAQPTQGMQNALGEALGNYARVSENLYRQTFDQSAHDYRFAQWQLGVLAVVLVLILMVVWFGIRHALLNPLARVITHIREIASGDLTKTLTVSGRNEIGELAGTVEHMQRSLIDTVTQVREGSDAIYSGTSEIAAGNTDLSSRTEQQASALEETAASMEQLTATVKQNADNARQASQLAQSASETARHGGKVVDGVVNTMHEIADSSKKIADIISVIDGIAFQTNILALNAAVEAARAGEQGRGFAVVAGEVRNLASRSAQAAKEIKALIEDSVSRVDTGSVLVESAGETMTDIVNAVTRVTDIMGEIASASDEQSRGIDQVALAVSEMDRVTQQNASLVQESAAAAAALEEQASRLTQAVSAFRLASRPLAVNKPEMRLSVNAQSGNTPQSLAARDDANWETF

In the case of N[C@@H](CS)C(=O)O [Cys], the EC50 is reported as 128 µM.
